Experimental data: ChEMBL document CHEMBL2380196, “New anticancer active and selective phenylene-bisbenzothiazoles: synthesis, antiproliferative evaluation and DNA binding” (Eur J Med Chem, 2013)
pIC50: −log10 of the molar value. Active and inactive are the calls of the source. The calls are words filed in the database; no cut-off is given here.

How the values were obtained:
HeLa [1] = test: Cell cycle arrest in human HeLa cells assessed as accumulation in S phase at 10 uM after 24 hrs using propidium iodide staining by flow cytometry relative to control; format: functional
SK-BR-3 [2] = test: Cell cycle arrest in human SKBR3 cells assessed as accumulation in S phase at 5 uM after 48 hrs using propidium iodide staining by flow cytometry relative to control; format: functional
SK-BR-3 [3] = test: Cell cycle arrest in human SKBR3 cells assessed as accumulation in sub-G1 phase at 5 uM after 24 hrs using propidium iodide staining by flow cytometry relative to control; format: functional
DNA [4] = test: Binding affinity to calf thymus DNA assessed as hypochromic effect at 20 uM by UV/Vis spectra analysis; format: nucleic-acid assay; conditions: Bos taurus
SK-BR-3 [5] = test: Cell cycle arrest in human SKBR3 cells assessed as accumulation in G2/M phase at 10 uM after 48 hrs using propidium iodide staining by flow cytometry relative to control; format: functional
DNA [6] = test: Binding affinity to calf thymus DNA at 50 uM by Circular dichroism spectra analysis; format: nucleic-acid assay; conditions: Bos taurus
HeLa [7] = test: Cell cycle arrest in human HeLa cells assessed as accumulation in sub-G1 phase at 5 uM after 24 hrs using propidium iodide staining by flow cytometry relative to control; format: functional
SW-620 [8] = test: Cell cycle arrest in human SW620 cells assessed as accumulation in S phase at 5 uM after 24 hrs using propidium iodide staining by flow cytometry relative to control; format: functional
MIA PaCa-2 [9] = test: Cell cycle arrest in human MIAPaCa2 cells assessed as accumulation in G2/M phase at 5 uM after 24 hrs using propidium iodide staining by flow cytometry relative to control; format: functional
SW-620 [10] = test: Cell cycle arrest in human SW620 cells assessed as accumulation in sub-G1 phase at 5 uM after 24 hrs using propidium iodide staining by flow cytometry relative to control; format: functional
SK-BR-3 [11] = test: Cell cycle arrest in human SKBR3 cells assessed as accumulation in sub-G1 phase at 10 uM after 48 hrs using propidium iodide staining by flow cytometry relative to control; format: functional
SW-620 [12] = test: Cell cycle arrest in human SW620 cells assessed as accumulation in S phase at 10 uM after 48 hrs using propidium iodide staining by flow cytometry relative to control; format: functional
MIA PaCa-2 [13] = test: Cell cycle arrest in human MIAPaCa2 cells assessed as accumulation in G1 phase at 10 uM after 24 hrs using propidium iodide staining by flow cytometry relative to control; format: functional
MIA PaCa-2 [14] = test: Cell cycle arrest in human MIAPaCa2 cells assessed as accumulation in sub-G1 phase at 10 uM after 48 hrs using propidium iodide staining by flow cytometry relative to control; format: functional
DNA [15] = test: Binding affinity to calf thymus DNA assessed as change in melting temperature at 0.25 drug/DNA ratio by spectrophotometer analysis; format: nucleic-acid assay; conditions: Bos taurus
HeLa [16] = test: Cell cycle arrest in human HeLa cells assessed as accumulation in G2/M phase at 5 uM after 48 hrs using propidium iodide staining by flow cytometry relative to control; format: functional
SK-BR-3 [17] = test: Antiproliferative activity against human SKBR3 cells after 72 hrs by MTT assay; format: functional, cell-based; conditions: SK-BR-3, 72 h; for CC50: read-out: LC50 (the source's name)
SW-620 [18] = test: Cell cycle arrest in human SW620 cells assessed as accumulation in G2/M phase at 10 uM after 48 hrs using propidium iodide staining by flow cytometry relative to control; format: functional
SW-620 [19] = test: Cell cycle arrest in human SW620 cells assessed as accumulation in S phase at 5 uM after 48 hrs using propidium iodide staining by flow cytometry relative to control; format: functional
HeLa [20] = test: Cell cycle arrest in human HeLa cells assessed as accumulation in S phase at 5 uM after 48 hrs using propidium iodide staining by flow cytometry relative to control; format: functional
SW-620 [21] = test: Cell cycle arrest in human SW620 cells assessed as accumulation in G2/M phase at 5 uM after 48 hrs using propidium iodide staining by flow cytometry relative to control; format: functional
SK-BR-3 [22] = test: Cell cycle arrest in human SKBR3 cells assessed as accumulation in G2/M phase at 5 uM after 48 hrs using propidium iodide staining by flow cytometry relative to control; format: functional
HeLa [23] = test: Cell cycle arrest in human HeLa cells assessed as accumulation in G1 phase at 10 uM after 48 hrs using propidium iodide staining by flow cytometry relative to control; format: functional
HeLa [24] = test: Cell cycle arrest in human HeLa cells assessed as accumulation in G1 phase at 5 uM after 48 hrs using propidium iodide staining by flow cytometry relative to control; format: functional
WI-38 = test: (§1) Antiproliferative activity against human WI38 cells after 72 hrs by MTT assay; format: cell-based; conditions: Homo sapiens, WI-38, 72 h
[25] = as §1; format: cell-based, WI-38; conditions: human, WI-38 cells; read-out: LC50
SW-620 [26] = test: Cell cycle arrest in human SW620 cells assessed as accumulation in G1 phase at 5 uM after 48 hrs using propidium iodide staining by flow cytometry relative to control; format: functional
HeLa [27] = test: Cell cycle arrest in human HeLa cells assessed as accumulation in G1 phase at 5 uM after 24 hrs using propidium iodide staining by flow cytometry relative to control; format: functional
MIA PaCa-2 [28] = test: Induction of apoptosis in human MIAPaCa2 cells at 10 uM after 48 hrs using propidium iodide/Annexin-V staining by flow cytometry relative to control; format: functional
MIA PaCa-2 [29] = test: Induction of apoptosis in human MIAPaCa2 cells at 10 uM after 24 hrs using propidium iodide/Annexin-V staining by flow cytometry relative to control; format: functional
[30] = molecular target: T1, DNA topoisomerase 1 (Homo sapiens) (UniProt P11387); test: Inhibition of human topoisomerase 1-mediated supercoiled pUC19 DNA relaxation at 1 to 50 uM after 45 mins by agarose gel electrophoresis
T1 sequence (whole entry): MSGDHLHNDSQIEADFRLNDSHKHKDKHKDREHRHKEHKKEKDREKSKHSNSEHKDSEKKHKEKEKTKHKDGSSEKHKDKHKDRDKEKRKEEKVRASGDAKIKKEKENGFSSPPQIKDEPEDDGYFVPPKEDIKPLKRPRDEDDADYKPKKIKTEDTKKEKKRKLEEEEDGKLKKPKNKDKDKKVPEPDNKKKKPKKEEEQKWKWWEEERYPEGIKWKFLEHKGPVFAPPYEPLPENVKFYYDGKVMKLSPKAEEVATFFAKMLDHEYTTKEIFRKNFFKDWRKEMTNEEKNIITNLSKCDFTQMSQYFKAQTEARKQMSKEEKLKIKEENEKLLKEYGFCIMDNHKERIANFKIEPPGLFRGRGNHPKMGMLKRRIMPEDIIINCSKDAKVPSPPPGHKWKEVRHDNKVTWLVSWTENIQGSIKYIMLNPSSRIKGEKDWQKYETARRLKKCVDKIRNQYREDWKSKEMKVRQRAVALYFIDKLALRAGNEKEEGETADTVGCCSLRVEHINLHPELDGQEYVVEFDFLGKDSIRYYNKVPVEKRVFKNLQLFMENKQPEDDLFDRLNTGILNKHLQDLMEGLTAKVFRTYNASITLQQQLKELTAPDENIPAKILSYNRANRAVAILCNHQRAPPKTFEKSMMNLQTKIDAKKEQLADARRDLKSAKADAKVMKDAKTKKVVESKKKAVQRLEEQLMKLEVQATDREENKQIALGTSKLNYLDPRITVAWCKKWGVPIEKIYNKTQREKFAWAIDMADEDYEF

| Structure (SMILES) | Activity (HeLa [1]) | Activity (SK-BR-3 [2]) | Activity (SK-BR-3 [3]) | Activity (DNA [4]) | Activity (SK-BR-3 [5]) | Activity (DNA [6]) | Activity (HeLa [7]) | Activity (MIA PaCa-2 [9]) | Activity (SK-BR-3 [11]) | Activity (MIA PaCa-2 [13]) | Activity (MIA PaCa-2 [14]) | ΔTm (DNA [15]) | Activity (HeLa [16]) | pIC50 (SK-BR-3 [17]) | CC50 (SK-BR-3 [17]) | Activity (HeLa [20]) | Activity (SK-BR-3 [22]) | Activity (HeLa [23]) | Activity (HeLa [24]) | pIC50 (WI-38) | also measured |
| --- | --- | --- | --- | --- | --- | --- | --- | --- | --- | --- | --- | --- | --- | --- | --- | --- | --- | --- | --- | --- | --- |
| Cl.Cl.c1cc(-c2nc3ccc(C4=NCCN4)cc3s2)cc(-c2nc3ccc(C4=NCCN4)cc3s2)c1 | 66.3% | 44% | 33.3% | Active | 11.1% | Active | 14.4% | 10.9% | 12.5% | 41.6% | 9.1% | 12.8 °C | 17.2% | 7.40 | 870 nM | 39.3% | 21.1% | 20.4% | 47.5% | 6.82 | Activity (SW-620 [8]): 46.6%; Activity (SW-620 [10]): 13.5%; Activity (SW-620 [12]): 69.6%; Activity (SW-620 [18]): 6.8%; Activity (SW-620 [19]): 48.6%; Activity (SW-620 [21]): 14.7%; CC50 at 72 h [25]: 6630 nM; Activity (SW-620 [26]): 36.7%; Activity (HeLa [27]): 39.3% |
| Cl.Cl.c1cc2nc(-c3ccc(-c4nc5ccc(C6=NCCN6)cc5s4)cc3)sc2cc1C1=NCCN1 | 58.7% | 32.6% | 15.8% | Active | 20.3% | inactive | 9.9% | 5.8% | 32.1% | 40.9% | 53.9% | 3.9 °C | 18.9% | 5.93 | 8070 nM | 49.6% | 13.8% | 42.3% | 31.9% | < 4.00 | Activity (MIA PaCa-2 [28]): 4%; Activity (MIA PaCa-2 [29]): 5%; inhibition [30]: Active; CC50 at 72 h [25]: > 100000 nM; Activity (HeLa [27]): 42% |
